Paper PMC10174317, “^18F-labeled FGFR1 peptide: a new PET probe for subtype FGFR1 receptor imaging” (Frontiers in Oncology, 2023)
Primed or numbered codes have the meaning given here. Where no end group is shown, it is not given here. The star is where a group is joined. NOTA = O=C(O)CN1CCN(CC(=O)O)CCN(CC(=O)*)CC1; PEG2′ = not defined here

T1: FGFR1 (Homo sapiens, UniProt P11362)
T1 chain: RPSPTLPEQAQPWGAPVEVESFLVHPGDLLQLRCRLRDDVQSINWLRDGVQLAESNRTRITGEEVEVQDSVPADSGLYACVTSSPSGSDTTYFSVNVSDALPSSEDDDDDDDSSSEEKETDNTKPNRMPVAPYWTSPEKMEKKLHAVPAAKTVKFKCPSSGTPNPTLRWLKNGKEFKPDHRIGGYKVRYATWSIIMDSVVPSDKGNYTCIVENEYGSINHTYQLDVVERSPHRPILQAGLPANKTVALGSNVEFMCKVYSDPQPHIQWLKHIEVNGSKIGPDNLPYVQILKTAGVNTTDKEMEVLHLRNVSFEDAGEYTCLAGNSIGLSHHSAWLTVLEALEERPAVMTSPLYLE


Tests used:
[1] = tested on: FGFR1; conditions: preclinical studies; higher affinity for FGFR1 than for other FGFR subtypes; cited from earlier work
Text: To assess FGFR aberration status, tissue specimens generally need to be collected via invasive procedures, such as surgery or biopsy. These approaches may be limited by heterogeneity, tumor stage, the invasiveness of the procedure, long operating time and the functional status of patients’ major organs. To overcome the inconvenience of invasive operations, molecular imaging has emerged as a noninvasive method to detect FGFR expression in tumors at the cellular or subcellular level ([23]–[25]), which are different from traditional anatomic imaging. […].

[2] = biological target: T1, FGFR1; assay: saturation binding assay on RT-112 cells (radioligand)

Row | Kd [2] [nM] | Molecule | IC50 [1] [nM]
3 | – | AZD4547 | < 1
4 | 190 | {NOTA-PEG2′}-KAEWKSLGEEAWHSK (also: Al18F complexed by NOTA) [[18F]F-FGFR1 peptide (NOTA-PEG2-KAEWKSLGEEAWHSK)] | –
